Reference: patent publication US20240174690A1, “ANNULATED 2-AMINO-3-CYANO THIOPHENES AND DERIVATIVES FOR THE TREATMENT OF CANCER” (BOEHRINGER INGELHEIM INTERNATIONAL GMBH, priority 2021, published 2024)
Like-named read-outs stand apart in the source and are kept apart here.

Columns and labels:
MKN1 cells = assay: MKN1 CTG proliferation assay (120 h) (gastric cancer, wt amplified); assay type: cell-based; settings: Homo sapiens
Method: MKN1 CTG Proliferation Assay (120 h) (Gastric Cancer, Wt Amplified)
MKN1 cells (JCRB0252) are dispensed into white 384-well plates, flat and white bottom (Corning Costar, PNr.: 3570) at a density of 400 cells per well in 50 μL RPMI 1640 (PAN-Biotech, PNr.: P04-18047)+10% FCS (HyClone, PNr.: SH30084.03) (assay 1) or into white 384-well plates, flat and white bottom (Perkin Elmer, 6007680) at a density of 500 cells per well in 40 μl RPMI (Gibco, PNr.: 21875034)+10% FCS (HyClone, PNr.: SH30084.03) (assay 2) or into black 384-well plates, flat and clear bottom (Greiner, PNr. 781091) at a density of 200 cells per well in 60 μl RPMI-1640 (Gibco #A10491)+10% FCS (HyClone, PNr.: SH30084.03)+PenStrep (Gibco, PNr.15140-122) (assay 3). […] Compounds (10 mM stock in DMSO) are added at logarithmic dose series using the HP Digital Dispenser D300 (Tecan) (assay 1+2) or the ECHO acoustic liquid handler system (Beckman Coulter) (assay 3), including DMSO controls and normalizing for added DMSO. Plates are incubated for 120 h, and cell viability is measured using CellTiter-Glo luminescent cell viability reagent (Promega product code G7570). Viability (stated as percent of control) is defined as relative luminescence units RLU of each well divided by the RLU of cells in DMSO controls. IC50 values are determined from viability measurements by non-linear regression using a four-parameter model.

KRAS (G12V)::SOS1 = KRAS (G12V)::SOS1 (Homo sapiens (Human), UniProt P01116, C118S/G12V); assay: KRAS::SOS1 AlphaScreen binding assay, KRAS G12V
Description: (§1) This assay can be used to examine the potency with which compounds according to the invention binding to (mutated) KRAS inhibit the protein-protein interaction between SOS1 and (mutated) KRAS e.g., KRAS WT, KRAS G12C, KRAS G12D, KRAS G12V, KRAS G13D. […] Low IC50 values in this assay setting are indicative of strong inhibition of protein-protein interaction between SOS1 and KRAS:
(§2) These assays measure the inhibitory effect of compounds on KRAS mutant protein-protein interactions using the Alpha Screen technology by Perkin Elmer.
(§3) The following (mutant) enzyme forms of KRAS and interacting proteins are used in these assays at the given concentrations: • KRAS (G12D) 1-169, N-terminal 6His-tag, C-terminal avi-tag (Xtal BioStructures, Inc.); final assay concentration 10 nM and SOS1 564-1049, N-terminal 229 GST-tag, TEV cleavage site (Viva Biotech Ltd); final assay concentration 5 nM; • KRAS (G12C) 1-169, N-terminal 6His-tag for purification, cleaved off, C-terminal avi-tag, biotinylated, mutations: C51S, C80L, C118S (in house); final assay concentration 7.5 nM and SOS1 564-1049, N-terminal 229 GST-tag, TEV cleavage site (Viva Biotech Ltd); final assay concentration 5 nM; • KRAS (G12V) 1-169, N-terminal 6His-tag for purification, cleaved off, C-terminal avi-tag, biotinylated, TEV cleavage site, mutation: C118S, GDP loaded (in house); final assay concentration 10 nM and SOS1 564-1049, N-terminal 229 GST-tag, TEV cleavage site (Viva Biotech Ltd); final assay concentration 10 nM; • KRAS (G13D) 1-169, N-terminal 6His-tag for purification, cleaved off, C-terminal avi-tag, biotinylated, TEV cleavage site, mutation: C118S, GDP loaded (in house); final assay concentration 10 nM and SOS1 564-1049, N-terminal 229 GST-tag, TEV cleavage site (Viva Biotech Ltd); final assay concentration 10 nM; • KRAS (WT) 1-169, N-terminal 6His-tag for purification, cleaved off, C-terminal avi-tag, biotinylated, TEV cleavage site, mutation: C118S, GDP loaded (in house); final assay concentration 10 nM and SOS1 564-1049, N-terminal 229 GST-tag, TEV cleavage site (Viva Biotech Ltd); final assay concentration 10 nM.
(§4) Test compounds dissolved in DMSO are dispensed onto assay plates (Proxiplate 384 PLUS, white, PerkinElmer; 6008289) using an Access Labcyte Workstation with the Labcyte Echo 55×. For the chosen highest assay concentration of 100 μM, 150 nL of compound solution are transferred from a 10 mM DMSO compound stock solution. A series of eleven fivefold dilutions per compound are transferred to the assay plate, compound dilutions are tested in duplicates. DMSO are added as backfill to a total volume of 150 nL.
(§5) The assays run on a fully automated robotic system in a darkened room below 100 Lux. To 150 nl of compound dilution 10 μl of a mix including KRAS mutant protein, SOS1 (final assay concentrations see above) and GDP nucleotide (Sigma G7127; final assay concentration 10 μM) in assay buffer (1×PBS, 0.1% BSA, 0.05% Tween 20) are added into columns 1-24.
(§6) After 30 minutes incubation time 5 μl of Alpha Screen bead mix in assay buffer are added into columns 1-23. Bead mix consists of AlphaLISA Glutathione Acceptor Beads (PerkinElmer, Cat No AL109) and AlphaScreen Streptavidin Donor Beads (PerkinElmer Cat No 6760002) in assay buffer at a final assay concentration of 10 μg/ml each.
(§7) Plates are kept at room temperature in a darkened incubator. After an additional 60 minutes incubation time the signal is measured in a PerkinElmer Envision HTS Multilabel Reader using the AlphaScreen specs from PerkinElmer.
(§8) Each plate contains up to 16 wells of a negative control depending on the dilution procedure (platewise or serial) (DMSO instead of test compound; with KRAS mutant::SOS1 GDP mix and bead mix; column 23) and 16 wells of a positive control (DMSO instead of test compound; with KRAS mutant::SOS1 GDP mix w/o bead mix; column 24).
(§9) As internal control known inhibitors of KRAS mutant::SOS1 interaction can be measured on each compound plate. […]

KRAS (WT)::SOS1 = KRAS (WT)::SOS1 (Homo sapiens (Human), UniProt P01116, C118S); assay: KRAS::SOS1 AlphaScreen binding assay, KRAS WT
Description: as §1, §2, §3, §4, §5, §6, §7, §8, §9

[1] = MKN-1, assay 3, CTG 120 h, read-out: MKN1 (assay 3) IC50

Sequence of KRAS (WT)::SOS1 (P01116 other isoform, or with tags, fused parts or gaps C118S): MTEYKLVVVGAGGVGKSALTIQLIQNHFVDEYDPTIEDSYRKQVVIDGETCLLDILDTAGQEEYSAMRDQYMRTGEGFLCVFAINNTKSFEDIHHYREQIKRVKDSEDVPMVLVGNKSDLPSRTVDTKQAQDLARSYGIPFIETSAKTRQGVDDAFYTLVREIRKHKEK
Sequence of KRAS (G12V)::SOS1 (P01116 other isoform, or with tags, fused parts or gaps G12V/C118S): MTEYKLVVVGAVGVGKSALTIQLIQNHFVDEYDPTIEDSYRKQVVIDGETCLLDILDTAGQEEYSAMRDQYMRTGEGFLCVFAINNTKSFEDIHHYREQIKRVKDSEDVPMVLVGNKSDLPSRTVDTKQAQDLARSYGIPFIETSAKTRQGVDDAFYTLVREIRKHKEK

| SMILES | IC50 (MKN1 cells; MKN-1, assay 1, CTG 120 h, read-out: MKN1 (assay 1) IC50) | IC50 (MKN1 cells; [1]) | IC50 (KRAS (G12V)::SOS1) | IC50 (KRAS (WT)::SOS1) |
| --- | --- | --- | --- | --- |
| C[C@H](Oc1cc([C@@H]2CCOC2)nc(-c2noc3c2CCC[C@@]32CCCc3sc(N)c(C#N)c32)n1)[C@@H]1CCCN1C [II-94] | 32 nM | 51 nM | 2 nM | 3 nM |
| C[C@H](Oc1cc(-n2cncc3ccnc2-3)nc(-c2noc3c2CCC[C@@]32CCCc3sc(N)c(C#N)c32)n1)[C@@H]1CCCN1C [II-105] | – | 426 nM | 2 nM | 4 nM |
| C[C@H](Oc1cc(-n2ccc(-c3ccccn3)n2)nc(-c2noc3c2CCC[C@@]32CCCc3sc(N)c(C#N)c32)n1)[C@@H]1CCCN1C [II-119] | – | 252 nM | 2 nM | 6 nM |
